Reference: US20090197859A1 (Pfizer Inc., priority 2008, published 2009)

The compounds below were run against T1, cloned human 5-HT6 receptor (Homo sapiens, UniProt P50406) (assay: 5-HT6 Receptor Binding Assay ([3H]-LSD radioligand, SPA)). Details: read-out: 5HT6 % inh @ 1 uM.
T1 construct: host or cells: HeLa cells, G-418 selection, membrane preparation
Protocol: 5-HT6 Receptor Binding Assay
Hela cells containing the cloned human 5-HT6 receptor were acquired from Dr. David R. Sibley's laboratory in National Institute of Health (see Sibley, D. R., J. Neurochemistry, 66, 47-56, 1996). Cells were grown in high glucose Dulbecco's modified Eagle's medium, supplemented with L-glutamine, 0.5% sodium pyruvate, 0.3% penicillin-streptomycin, 0.025% G-418 and 5% Gibco fetal bovine serum and then were harvested, when confluent, in cold phosphate buffered saline.
Harvested intact cells were washed once in cold phosphate-buffered saline. The cells were pelleted and resuspended in 100 ml of cold 50 mM Tris, 5 mM EDTA and 5 mM EGTA, pH 7.4. Homogenization was with a Vir Tishear generator, 4 cycles for 30 seconds each at setting 50. The homogenized cells were centrifuged at […] for 10 minutes and the supernatant was removed. The pellet was resuspended in 100 ml of the above buffer and rehomogenized for 2 cycles. The rehomogenized cells were then centrifuged at […] for 10 minutes and the supernatant was removed. The combined supernatant (200 ml) was centrifuged at 23,000 RPM (80,000×g) for 1 hour in a Beckman Rotor (42.1 Ti). The membrane pellet was resuspended in […] of assay buffer containing HEPES 20 mM, MgCl2 10 mM, NaCl 150 mM, EDTA 1 mM, pH 7.4 and stored frozen in aliqouts at −70° C.
The radioligand binding assay used [^3H]-lysergic acid diethylamide (LSD). The assay was carried out in Wallac 96-well sample plates by the addition of 11 μl of the test sample at the appropriate dilution (the assay employed 11 serial concentrations of samples run in duplicate), 11 μl of radioligand, and 178 μl of a washed mixture of WGA-coated SPA beads and membranes in binding buffer. The plates were shaken for about 5 minutes and then incubated at room temperature for 1 hour. The plates were then loaded into counting cassettes and counted in a Wallac MicroBeta Trilux scintillation counter.
Binding Constant Determination may be obtained by performing serial dilutions, e.g., eleven dilutions, of test compounds into assay plates using the PE/Cetus Pro/Pette pipetter. These dilutions are followed by radioligand and the bead-membrane mixture prepared as described above. After obtaining the specifically bound cpm, the data are fit to a one-site binding model using GraphPad Prism ver. 2.0. Estimated IC50 values are converted to Ki values using the Cheng-Prusoff equation (Cheng, Y. C. et al., Biochem. Pharmacol., 22, 3099-108, 1973).

T1 sequence (P50406 whole entry): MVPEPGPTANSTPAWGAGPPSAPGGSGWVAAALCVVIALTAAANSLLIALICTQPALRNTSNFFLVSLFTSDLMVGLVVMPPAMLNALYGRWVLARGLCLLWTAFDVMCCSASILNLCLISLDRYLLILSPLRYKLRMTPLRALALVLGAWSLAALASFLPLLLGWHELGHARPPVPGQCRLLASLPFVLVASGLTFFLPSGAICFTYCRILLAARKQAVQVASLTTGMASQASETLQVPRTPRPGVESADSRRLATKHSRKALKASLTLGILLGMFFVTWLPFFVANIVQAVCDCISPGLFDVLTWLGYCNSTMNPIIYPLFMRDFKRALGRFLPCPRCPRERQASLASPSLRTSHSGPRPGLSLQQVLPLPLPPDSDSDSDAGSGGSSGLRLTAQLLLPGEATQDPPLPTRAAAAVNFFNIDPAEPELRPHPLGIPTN

| Compound | inhibition at 1 µM [%] |
| --- | --- |
| CN1CCC(c2cccc(C(=O)N3CCC(Oc4cccc(F)c4)CC3)n2)C1 (stereo not drawn) [Example 16, [4-(3-Fluoro-phenoxy)-piperidin-1-yl]-[6-(1-methyl-pyrrolidin-3-yl)-pyridin-2-yl]-methanone] | 93.2 |
| CN1CC=C(c2cccc(C(=O)N3CCC(Oc4ccccc4F)CC3)n2)CC1 [Example 18, [4-(2-Fluoro-phenoxy)-piperidin-1-yl]-[1′-methyl-1′,2′,3′,6′-tetrahydro-[2,4′]bipyridinyl-6-yl)-methanone] | 95.3 |
| CN1CCN(c2cccc(C(=O)N3CC=C(c4ccccc4F)CC3)n2)CC1 [Example 21, [4-(2-Fluoro-phenyl)-3,6-dihydro-2H-pyridin-1-yl]-[6-(4-methyl-piperazin-1-yl)-pyridin-2-yl]-methanone] | 97.8 |
| O=C(c1cccc(N2CCNCC2)n1)N1CCC(c2ccccc2F)CC1 [Example 22, [4-(2-Fluoro-phenyl)-piperidin-1-yl]-(6-piperazin-1-yl-pyridin-2-yl)-methanone] | 96.8 |
| Cc1cccc(F)c1C1CCN(C(=O)c2cccc(N3CCN(C)CC3)n2)CC1 [Example 23, [4-(2-Fluoro-6-methyl-phenyl)-piperidin-1-yl]-[6-(4-methyl-piperazin-1-yl)-pyridin-2-yl]-methanone] | 98.3 |
| Cc1ccccc1C1CCCCN1C(=O)c1cccc(N2CCNCC2)n1 (stereo not drawn) [Example 26, (6-Piperazin-1-yl-pyridin-2-yl)-(2-o-tolyl-piperidin-1-yl)-methanone] | 78.6 |
| O=C(c1cccc(N2CCCNCC2)n1)N1CC[C@H](Oc2ccccc2F)C1 [Example 30, (6-[1,4]Diazepan-1-yl-pyridin-2-yl)-[(S)-3-(2-fluoro-phenoxy)-pyrrolidin-1-yl]-methanone] | 98.8 |
| CN1CCCN(c2cccc(C(=O)N3CC[C@@H](Oc4ccccc4F)C3)n2)CC1 [Example 46, [(R)-3-(2-Fluoro-phenoxy)-pyrrolidin-1-yl]-[6-(4-methyl-[1,4]diazepan-1-yl)-pyridin-2-yl]-methanone] | 85 |
| O=C(c1cccc(N2CCCNCC2)n1)N1CCC[C@@H](Oc2ccccc2F)C1 [Example 47, (6-[1,4]Diazepan-1-yl-pyridin-2-yl)-[(R)-3-(2-fluoro-phenoxy)-piperidin-1-yl]-methanone] | 90.6 |
| O=S(=O)(c1cccc(N2CCNCC2)n1)N1CCC(c2ccccc2F)CC1 [Example 51, 1-{6-[4-(2-Fluoro-phenyl)-piperidine-1-sulfonyl]-pyridin-2-yl}-piperazine] | 97 |
| Cc1ccccc1O[C@@H]1CCN(C(=O)c2cccc(N3CCCN(C)CC3)n2)C1 [Example 53, [6-(4-Methyl-[1,4]diazepan-1-yl)-pyridin-2-yl]-((R)-3-o-tolyloxy-pyrrolidin-1-yl)-methanone] | 95.9 |
| Cc1ccc([C@@H](C)N(C)C(=O)c2cccc(N3CCN(C)CC3)n2)cc1 [Example 60, 6-(4-Methyl-piperazin-1-yl)-pyridine-2-carboxylic acid methyl-((R)-1-p-tolyl-ethyl)-amide] | 73.8 |
| Cc1ccccc1C1CCN(S(=O)(=O)c2cccc(N3CCN(C)CC3)n2)CC1 [Example 78, 1-Methyl-4-[6-(4-o-tolyl-piperidine-1-sulfonyl)-pyridin-2-yl]-piperazine] | 98.5 |
| Cc1cccc([C@H]2CCCCN2C(=O)c2cccc(N3CCCN(C)CC3)n2)c1 [Example 81] | 93.6 |
| Cc1ccccc1C1CN(C(=O)c2cccc(N3CCN(C)CC3)n2)C1 [Example 82, [6-(4-Methyl-piperazin-1-yl)-pyridin-2-yl]-(3-o-tolyl-azetidin-1-yl)-methanone] | 91.3 |
| CN1CCN(c2cccc(C(=O)N3CC(c4ccccc4F)C3)n2)CC1 [Example 83, [3-(2-Fluoro-phenyl)-azetidin-1-yl]-[6-(4-methyl-piperazin-1-yl)-pyridin-2-yl]-methanone] | 84.4 |
| CN1CCN(c2cccc(C(=O)N3CC(c4cccc(F)c4)C3)n2)CC1 [Example 84, [3-(3-Fluoro-phenyl)-azetidin-1-yl]-[6-(4-methyl-piperazin-1-yl)-pyridin-2-yl]-methanone] | 78 |

| Compound | inhibition at 1 µM [%] |
| --- | --- |
| CN1CCCN(c2cccc(C(=O)N3CCCC[C@@H]3c3ccccc3F)n2)CC1 [Example 89, [(R)-2-(2-Fluoro-phenyl)-piperidin-1-yl]-[6-(4-methyl-[1,4]diazepan-1-yl)-pyridin-2-yl]-methanone] | 92.3 |
| Cc1cccc(C2CN(C(=O)c3cccc(N4CCN(C)CC4)n3)C2)c1 [Example 91, [6-(4-Methyl-piperazin-1-yl)-pyridin-2-yl]-(3-m-tolyl-azetidin-1-yl)-methanone] | 84.8 |
| CN1CCN(c2cccc(C(=O)N3CCCC(c4cccc(F)c4)C3)n2)CC1 (stereo not drawn) [Example 94, [3-(3-Fluoro-phenyl)-piperidin-1-yl]-[6-(4-methyl-piperazin-1-yl)-pyridin-2-yl]-methanone] | 90.8 |
| Cc1ccccc1OC1CCN(C(=O)c2cccc(C3CCN(C)CC3)n2)CC1 [Example 95, (1′-Methyl-1′,2′,3′,4′,5′,6′-hexahydro-[2,4′]bipyridinyl-6-yl)-(4-o-tolyloxy-piperidin-1-yl)-methanone] | 84 |
| Cc1ccccc1OC1CCN(C(=O)c2cccc(C3=CCN(C)CC3)n2)CC1 [Example 98, (1′-Methyl-1′,2′,3′,6′-tetrahydro-[2,4′]bipyridinyl-6-yl)-(4-o-tolyloxy-piperidin-1-yl)-methanone] | 99.1 |
| CN1CCC(c2cccc(C(=O)N3CCC(Oc4ccccc4F)CC3)n2)CC1 [Example 99, [4-(2-Fluoro-phenoxy)-piperidin-1-yl]-(1′-methyl-1′,2′,3′,4′,5′,6′-hexahydro-[2,4′]bipyridinyl-6-yl)-methanone] | 78.4 |
| CN1CC=C(c2cccc(C(=O)N3CCC(Oc4ccccc4Cl)CC3)n2)CC1 [Example 100, [4-(2-Chloro-phenoxy)-piperidin-1-yl]-(1′-methyl-1′,2′,3′,6′-tetrahydro-[2,4′]bipyridinyl-6-yl)-methanone] | 102 |
| CN1CC=C(c2cccc(C(=O)N3CCC(Oc4ccccc4C(F)(F)F)CC3)n2)CC1 [Example 101, (1′-Methyl-1′,2′,3′,6′-tetrahydro-[2,4′]bipyridinyl-6-yl)-[4-(2-trifluoromethyl-phenoxy)-piperidin-1-yl]-methanone] | 96.9 |
| CN1CCN(c2cccc(C(=O)N3CCC(F)(c4ccccc4F)CC3)n2)CC1 [Example 107, [4-Fluoro-4-(2-fluoro-phenyl)-piperidin-1-yl]-[6-(4-methyl-piperazin-1-yl)-pyridin-2-yl]-methanone] | 97.2 |
| CN1CCC(c2cccc(C(=O)N3CCC(c4ccc(F)cc4F)CC3)n2)C1 (stereo not drawn) [Example 108, [4-(2,4-Difluoro-phenyl)-piperidin-1-yl]-[6-(1-methyl-pyrrolidin-3-yl)-pyridin-2-yl]-methanone] | 95.4 |
| CN1CCN(c2cccc(C(=O)N3CCC(Oc4ccc(F)cc4F)CC3)n2)CC1 [Example 109, [4-(2,4-Difluoro-phenoxy)-piperidin-1-yl]-[6-(4-methyl-piperazin-1-yl)-pyridin-2-yl]-methanone] | 97.8 |
| Cc1cccc(F)c1C1CCN(C(=O)c2cccc(C3=CCNC3)n2)CC1 [Example 110, [6-(2,5-Dihydro-1H-pyrrol-3-yl)-pyridin-2-yl]-[4-(2-fluoro-6-methyl-phenyl)-piperidin-1-yl]-methanone] | 98.2 |
| CN1CCC(c2cccc(C(=O)N3CCC(Oc4ccccc4F)CC3)n2)C1 (stereo not drawn) [Example 113, [4-(2-Fluoro-phenoxy)-piperidin-1-yl]-[6-(1-methyl-pyrrolidin-3-yl)-pyridin-2-yl]-methanone] | 97.8 |
| Cc1ccccc1C1CCN(C(=O)c2cccc(N3CCN(C4CC4)CC3)n2)CC1 [Example 114, [6-(4-Cyclopropyl-piperazin-1-yl)-pyridin-2-yl]-(4-o-tolyl-piperidin-1-yl)-methanone] | 64.5 |
| CN1CCN(c2cccc(C(=O)N3CCC(Cc4ccccc4F)CC3)n2)CC1 [Example 115, [4-(2-Fluoro-benzyl)-piperidin-1-yl]-[6-(4-methyl-piperazin-1-yl)-pyridin-2-yl]-methanone] | 101 |
| CN1CCN(c2cccc(C(=O)N3CCCC(c4ccccc4F)CC3)n2)CC1 (stereo not drawn) [Example 116, [4-(2-Fluoro-phenyl)-azepan-1-yl]-[6-(4-methyl-piperazin-1-yl)-pyridin-2-yl]-methanone] | 98.5 |
